Experimental data: US9463174B2, “Pharmaceutical composition for the treatment of type-1 diabetes” (priority 2008, dated 2016)

How the values were obtained:
[1] = system: INS-1 cells; experiment: GABA production and release from insulin-secreting beta-cells (Free Amino Acid Analysis); type: cell-based
Experimental: In these in vitro assays using GLP-1-secreting and/or insulin-secreting cells, it was shown that the production and secretion of GLP-1 in the gut-derived cells (STC-1) were modulated by GABA, and the production and release of GABA from the beta-cells were also modulated by GLP-1. The specificity of these assays was determined by including the GABAAR antagonists or GLP-1 receptor antagonist in the assays.
The Free Amino Acid Analysis was performed on a Waters Acquity UPLC System. The Waters Acquity UPLC system employed consists of a Binary Solvent Manager, a Sample Manager, a TUV Detector and a Waters Acquity UPLC BEH C18 column (2.1×100 mm). Data was collected, stored and processed using Waters Empower 2 Chromatography software. Drying was done using a Tomy CC-181 Centrifugal Concentrator with a Sargent-Welch Model 8821 Vacuum pump. The operational procedures are as following: an aliquot of the sample was transferred into a 6×55 mm glass culture tube and dried under vacuum using a centrifugal evaporator. After drying, the sample was treated with a redrying solution consisting of methanol:water:triethylamine (2:2:1), vortex-mixed and dried under vacuum for 15 minutes. […] The derivatized amino acids were detected at 254 nm.
GABA concentrations were determined by the Free Amino Acid Analysis. […]

[2] = system: T1D-prone NOD mice; details: monotherapy, Hadjiyanni I et al 2008; cited from earlier work

Substance: GLP-1: incretin hormone glucagon-like peptide-1, SEQ ID NO: 1
- production and release of GABA from the beta-cells [1]: modulated
- efficacy on diabetes onset in T1D-prone NOD mice [2]: only marginally effective
